Measurements as given in patent publication EP1501797B1, “3-(SUBSTITUTED AMINO)-1H-INDOLE-2-CARBOXYLIC ACID ESTER AND 3-(SUBSTITUTED AMINO)-BENZO[B]THIOPHENE-2-CARBOXYLIC ACID ESTER DERIVATIVES AS INTERLEUKIN-4 GENE EXPRESSION INHIBITORS” (Aventis Pharmaceuticals Inc., priority 2002, dated 2003).

Assays:
IL-4 = experiment: In vivo ovalbumin (OVA) mouse model, BALF IL-4; parameters: species or system mice; conditions: for IL-4 pg/ml (± SEM): 30 minutes before OVA challenge, BALF 24 hours, vehicle 1220.4 ± 207.7
Procedure: This model is designed to determine the ability of a test article to modulate an antigen-induced pulmonary inflammatory cell accumulation in sensitized Balb/c mice from Charles River Laboratories. The mice are given a two week time period from arrival date prior to sensitizations.
On days 0, 7, 14, each animal is injected intraperitoneal (i.p.) with a 0.2 ml Ovalbumin Hydragel solution. Each animal receives 10 µg of Ovalbumin in 0.2 mL of Hydragel, aluminum hydroxide adsorptive gel containing 2% aluminum oxide. […] On day 22, BALF samples are collected from one group of animals and used for cytokine analysis. On day 24, BALF is obtained from a second group of animals and used for differential cell counts.
Test System: Female Babl/cJ mice (Jackson Laboratories), approximately 6-9 weeks old, each weighing approximately 20 to 25 grams, are divided into ten animals per group.
Sensitization Regimen: Mice are sensitized by an intraperitoneal injection of 10 µg ovalbumin (OVA) mixed in 4 mg aluminum hydroxide Al(OH)3 gel suspension in 0.2 ml sterile saline on Days 0, 7 and 14. This suspension is prepared one hour before intraperitoneal injection into each mouse. The animals are ready for OVA challenge on Day 21.
Antigen Challenge: Animals are exposed to aerosolized OVA on day 21 (5% w/v in sterile saline) for 20 minutes. The aerosol is generated by a PARI-Master nebulizer, the outlet of which is connected to a small Plexiglas® chamber containing the animals. Bronchoalveolar lavage is performed on Day 22.
Method of Study Performance: On day 24, 72 hours following aerosol OVA exposure, a separate group of animals are anesthetized with urethane (0.15 - 0.2 gm/kg) and the trachea is exposed and cannulated. Lungs are lavaged with 2 x 0.5 ml Hank's balanced salt solution without Ca^2+ and Mg^2+ (HBSS; Gibco, Grand Island, NY) containing 0.1% EDTA. Lavage fluid is recovered after 30 sec by gentle aspiration and pooled for each animal. Samples are centrifuged at 2000 rpm for 15 minutes at 5°C. After centrifugation, individual supernatants are stored frozen at -80°C. The resulting pellet is resuspended in 0.5 ml of HBSS containing 0.1% EDTA. Total cells and eosinophils are determined using a Technicon Hl and cytoslides, respectively.
Administration of the Test/Control Article: The test article and vehicle dosing preparations are administered once to each anesthetized mouse intranasally using a 200 µl pipette at 30-60 minutes prior to OVA challenge. Each animal receives 50 µl (25 µl/nostril) at each time point. Method of Euthanasia: Urethane overdose at in-life completion.
Compounds administered 30 minutes before aerosol ovalbumin challenge in ova sensitized mice. BALF harvested 24 hours after aerosol challenge. N = 6/group.
Mice (12 animals per group) are sensitized with 0.2 ml of an AlOH3 hydrogel suspension (2% AlOH3) containing 50 µg/ml ovalbumin on days 0, 7 and 14. […] The glucocorticosteroid budesonide (10 mg/kg) is included as a control. All compounds are given in 0.5% methylcellulose/0.2% Tween 80, intranasally (50µl). After the OVA challenge for 24 hours, the mice underwent bronchoalveolar lavage and IL-4 and IL-13 levels in the BALF are determined by ELISA. Another group of mice underwent bronchoalveolar lavage (72 hours after treatment) to determine the number of the eosinophils (*p<0.05, **p<0.01).
Compounds are given (30 mg/kg), intranasally, once, 30 min before OVA challenge unless noted otherwise. BAL fluids are collected 24 hours after OVA challenge and the cytokine levels are measured by standard ELISAs.

[1] = test system: sheep allergic to Ascaris suum; experiment: Sheep asthma model (Ascaris suum antigen challenge); assay type: in vivo
Procedure: Briefly, transpulmonary pressure, pulmonary resistance (RL), specific lung resistance (SRL airway hyperreactivity, airway responsiveness, are determined.
Venous blood samples (-5 ml) are obtained from a peripheral leg vein or the jugular vein for pharmacokinetic data. Measurement of Airway Mechanics: The unsedated sheep are restrained in a cart in the prone position with their heads immobilized. After topical anesthesia of the nasal passages with 2% lidocaine solution, a balloon catheter is advanced through one nostril into the lower esophagus. The animals are […] with a cuffed endotracheal tube through the other nostril using a flexible fiberoptic bronchoscope as a guide. (The cuff of the endotracheal tube is inflated only for the measurement of airway mechanics and during aerosol challenges to prevent undue discomfort. This procedure has no effect on airway mechanics). Pleural pressure is estimated with the esophageal balloon catheter (filled with one ml of air) which is positioned 5-10 cm from the gastroesophageal junction. In this position the end expiratory pleural pressure ranges between -2 and -5 cm H20. […] Lateral pressure in the trachea is measured with a sidehole catheter (inner dimension, 2.5 mm) advanced through and positioned distal to the tip of the endotracheal tube. Transpulmonary pressure, the difference between tracheal and pleural pressure, is measured with a differential pressure transducer catheter system. […] The signals of flow and transpulmonary pressure is recorded on an oscilloscope recorder which is linked to a computer for on-line calculation of RL from transpulmonary pressure, respiratory volume (obtained by digital integration) and flow. […] Immediately after the measurement of RL, thoracic gas volume (Vtg) is measured in a constant volume body plethysmograph to obtain specific lung resistance (SRL = RL . Vtg) in L x cm H20/LPS. […] To assess airway responsiveness, the cumulative carbachol dose in breath units (BU) that increases SRL 400% over the post-buffer value (i.e. PC400) is calculated from the dose response curve. […]

[2] = 3 mg/kg aerosol 30 min before antigen challenge, 2 sheep per group, FIG. 3A

## O=C(O)c1[nH]c2ccccc2c1Nc1ccncc1 [Example 28, 3-(4-Pyridinylamino)-1H-indole-2-carboxylic acid]
IL-4; 3 mg/kg intranasal
  IL-4 pg/ml (± SEM): 835.1 ± 40.4 pg/mL
IL-4; 10 mg/kg intranasal
  IL-4 pg/ml (± SEM): 414.3 ± 115.5 pg/mL
IL-4; 30 mg/kg intranasal
  IL-4 pg/ml (± SEM): 123.9 ± 48.7 pg/mL
IL-4; Mus musculus, mice, intranasally, FIG. 1, read-out: ED50, allergen-induced IL-4 levels in the BALF
  ED50: ~10 mg/kg
[1]; [2]
  acute increase in specific lung resistance (SRL), early bronchial response: did not affect
  late bronchial response (SRL): blocked the late response
[1]; 3 mg/kg, 2 sheep, FIG. 3B
  post challenge airway responsiveness (PC400 decrease after antigen challenge): prevented this effect
